Several values for one entry are separate records, joined by “and”; a condition that tells them apart may be missing. Equal values may be shown once.
Biological target: T1, canine TRPM8 (Canis lupus familiaris, UniProt Q1A7N1)
T1 construct: expressed in transfected cells
Experiment: In Vitro Canine TRPM8 Functional Assay (Ca2+-sensitive fluorescent dye, icilin activation, FLIPR/FDSS)
Assay type: cell-based
Settings: HEK293 cells stably expressing canine TRPM8, icilin activation; for IC50: eight-point dose-response; for % I (0.5 μM): compound at 0.5 μM; for % I (1 μM): compound at 1 μM
Procedure: The functional activity of compounds of Formula (I) was determined by measuring changes in intracellular calcium concentration using a Ca^2+-sensitive fluorescent dye. The changes in fluorescent signal were monitored by a fluorescence plate reader, either a FLIPR™ (Molecular Devices) or FDSS (Hamamatsu).
HEK293 cells stably expressing canine TRPM8 were routinely grown as monolayers in Dulbecco's minimum essential medium supplemented with 10% FBS, 1 mM L-glutamine, 100 units/mL penicillin, 100 ug/mL streptomycin and 400 μg/mL G418. Cells were maintained in 5% CO2 at 37° C. At 24 hrs prior to assay, cells were seeded in clear-base poly-D-lysine coated 384-well plates (BD Biosciences, NJ, USA) at a density of 5,000 cells per well in culture medium and grown overnight in 5% CO2 at 37° C. On assay day, growth media was removed and cells were loaded with Calcium 3 Dye (Molecular Devices) for 35 min at 37° C., under 5% CO2 and then for 25 min at room temperature and atmosphere. Subsequently, cells were tested for agonist-induced increases in intracellular Ca^2+ levels using FLIPR™ or FDSS. Cells were challenged with a compound of Formula (I) (at varying concentrations) and intracellular Ca^2+ was measured for 5 min prior to the addition of icilin to all wells to achieve a final concentration which produces approximately an 80% maximal response.
Basal FI was subtracted prior to normalizing data to percent of maximal response. Curves were generated using the average of quadruplicate wells for each data point, were analyzed using nonlinear regression of either sigmoidal dose response or sigmoidal dose response (variable slope). Finally, the EC50 and IC50 values were calculated with the best-fit dose curve determined by GraphPad Prism.

T1 sequence (Q1A7N1 1-1104): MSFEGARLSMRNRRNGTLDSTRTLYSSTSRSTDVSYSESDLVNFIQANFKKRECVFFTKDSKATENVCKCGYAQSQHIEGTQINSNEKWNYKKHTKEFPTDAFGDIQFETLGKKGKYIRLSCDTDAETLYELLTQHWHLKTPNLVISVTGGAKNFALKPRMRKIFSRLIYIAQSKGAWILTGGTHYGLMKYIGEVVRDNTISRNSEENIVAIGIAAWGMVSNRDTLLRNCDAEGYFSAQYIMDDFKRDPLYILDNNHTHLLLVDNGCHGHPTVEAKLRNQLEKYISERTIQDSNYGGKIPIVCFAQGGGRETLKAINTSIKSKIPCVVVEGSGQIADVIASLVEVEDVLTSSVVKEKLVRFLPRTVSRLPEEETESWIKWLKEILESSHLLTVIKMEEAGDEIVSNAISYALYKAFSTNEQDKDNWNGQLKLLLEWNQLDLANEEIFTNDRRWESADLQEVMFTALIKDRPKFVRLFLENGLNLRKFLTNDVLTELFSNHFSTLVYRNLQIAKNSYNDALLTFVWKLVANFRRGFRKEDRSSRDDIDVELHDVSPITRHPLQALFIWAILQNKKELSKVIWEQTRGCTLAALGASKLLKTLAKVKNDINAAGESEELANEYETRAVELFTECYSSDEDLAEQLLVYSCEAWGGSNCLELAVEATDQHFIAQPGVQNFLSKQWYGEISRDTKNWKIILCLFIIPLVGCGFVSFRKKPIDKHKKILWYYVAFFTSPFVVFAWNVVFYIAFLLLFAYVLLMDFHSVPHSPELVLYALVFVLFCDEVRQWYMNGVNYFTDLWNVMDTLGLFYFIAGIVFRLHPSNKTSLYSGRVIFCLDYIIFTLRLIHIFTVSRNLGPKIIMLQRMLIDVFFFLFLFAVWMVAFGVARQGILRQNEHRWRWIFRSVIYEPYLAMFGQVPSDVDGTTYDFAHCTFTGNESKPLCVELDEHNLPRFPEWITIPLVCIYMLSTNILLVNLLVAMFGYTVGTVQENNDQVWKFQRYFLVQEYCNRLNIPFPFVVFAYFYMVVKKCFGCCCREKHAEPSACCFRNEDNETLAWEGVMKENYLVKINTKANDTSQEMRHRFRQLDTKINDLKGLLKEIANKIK

Structure (SMILES) | IC50 | % I (0.5 μM) | % I (1 μM)
CCOP(=O)(OCC)C(Cc1ccc(SC(F)(F)F)cc1)c1sc2ccccc2c1Cl (centres unmarked) [Cpd 283] | 125 nM | 103% | –
CC(C)OP(=O)(OC(C)C)C(Cc1ccc(Cl)cc1)c1sc2ccccc2c1Br (centres unmarked) [Cpd 288] | 65 nM | 103% | –
CCOP(=O)(OCC)C(Cc1ccc(F)c(F)c1)c1sc2cccc(Cl)c2c1C (centres unmarked) [Cpd 65, [1-(4-Chloro-3-methyl-benzo[b]thiophen-2-yl)-2-(3,4-difluoro-phenyl)-ethyl]-phosphonic acid diethyl ester] | – | – | 100%
CCOP(=O)(OCC)C(Cc1ccc(F)c(F)c1)c1sc2ccccc2c1-c1ccc(F)cc1 (centres unmarked) [Cpd 220] | 207 nM | 101% | –
CCOP(=O)(OCC)C(Cc1ccc(F)c(F)c1)c1sc2cccc(F)c2c1Br (centres unmarked) [Cpd 224] | 44 nM | 102% | –
CC(C)OP(=O)(OC(C)C)C(Cc1cccc(C(F)(F)F)c1F)c1sc2ccccc2c1Cl (centres unmarked) [Cpd 168] | 76 nM | 104% | –
CCOP(=O)(OCC)C(Cc1cc(Cl)ccc1Cl)c1sc2ccccc2c1C (racemic) [Cpd 47] | 167 nM | – | 100%
CCOP(=O)(OCC)C(Cc1ccc(F)cc1Cl)c1sc2ccccc2c1C (racemic) [Cpd 27] | 110 nM | – | 99%
CCOP(=O)(OCC)C(Cc1ccc(F)c(F)c1)c1sc2cc(F)ccc2c1C (centres unmarked) [Cpd 16, [2-(3,4-Difluoro-phenyl)-1-(6-fluoro-3-methyl-benzo[b]-thiophene-2-yl)-ethyl]-phosphonic acid diethyl ester] | – | – | 100%
CC(C)OP(=O)(OC(C)C)C(Cc1cccc(OC(F)(F)F)c1)c1sc2ccccc2c1Cl (centres unmarked) [Cpd 301] | 54 nM | 102% | –
Cc1c(C(Cc2ccc(F)c(F)c2)P(=O)(OC(C)C)OC(C)C)oc2ccccc12 (racemic) [Cpd 11] | 43 nM and 47 nM | – | 99% and 103%
CCOP(=O)(OCC)C(Cc1ccc(F)c(C(F)(F)F)c1)c1sc2ccccc2c1Cl (centres unmarked) [Cpd 294] | 118 nM | 103% | –
CC(C)OP(=O)(OC(C)C)C(Cc1ccc(Cl)c(C(F)(F)F)c1)c1sc2ccccc2c1Cl (centres unmarked) [Cpd 167] | 97 nM | 104% | –
CCOP(=O)(OCC)C(Cc1ccc(F)c(F)c1)c1sc2ccccc2c1-c1ccsc1 (centres unmarked) [Cpd 208] | 104 nM | 104% | –
CCOP(=O)(OCC)C(Cc1ccc(C(F)(F)F)cc1)c1sc2ccccc2c1Cl (centres unmarked) [Cpd 285] | 125 nM | 103% | –
CCOP(=O)(OCC)C(Cc1ccc(F)cc1C(F)(F)F)c1sc2ccccc2c1Br (centres unmarked) [Cpd 245] | 124 nM | 103% | –
CCOP(=O)(OCC)C(Cc1ccc(OC)c(C(F)(F)F)c1)c1sc2ccccc2c1Br (centres unmarked) [Cpd 152] | 54 nM and 50 nM | 102% and 92% | –
CC(C)OP(=O)(OC(C)C)C(Cc1ccc(F)c(Cl)c1)c1sc2ccccc2c1Br (centres unmarked) [Cpd 248] | 21 nM | 104% | –
CCOP(=O)(OCC)C(Cc1c(F)c(F)c(O)c(F)c1F)c1sc2ccccc2c1Br (centres unmarked) [Cpd 228] | 129 nM | 94% | –
CC(C)OP(=O)(OC(C)C)C(Cc1ccc(F)c(F)c1)c1sc2ncccc2c1Br (centres unmarked) [Cpd 207] | 51 nM | 99% | –
CCOP(=O)(OCC)C(Cc1ccc(F)c(F)c1)c1sc2c(F)cccc2c1C (centres unmarked) [Cpd 8, [2-(3,4-Difluoro-phenyl)-1-(7-fluoro-3-methyl-benzo[b-]thiophene-2-yl)-ethyl]-phosphonic acid diethyl ester] | – | – | 100%
CCOP(=O)(OCC)C(Cc1ccc(SC)cc1)c1sc2ccccc2c1Br (centres unmarked) [Cpd 247] | 121 nM | 103% | –

Structure (SMILES) | IC50 | % I (0.5 μM) | % I (1 μM)
CCOP(=O)(OCC)C(Cc1ccc(F)c(F)c1)c1sc2ccc(F)cc2c1C (centres unmarked) [Cpd 45, [2-(3,4-Difluoro-phenyl)-1-(5-fluoro-3-methyl-benzo[b]thiophene-2-yl)-ethyl]-phosphonic acid diethyl ester] | – | – | 100%
CC(C)OP(=O)(OC(C)C)C(Cc1ccc(F)c(F)c1)c1oc2cccc(F)c2c1Br (centres unmarked) [Cpd 205] | 50 nM | – | 101%
COc1c(F)c(F)c(CC(c2sc3ccccc3c2Br)P(=O)(OC(C)C)OC(C)C)c(F)c1F (centres unmarked) [Cpd 161] | 19 nM | 103% | –
CCOP(=O)(OCC)C(Cc1ccccc1C(F)(F)F)c1sc2ccccc2c1Cl (centres unmarked) [Cpd 279] | 291 nM | 97% | –
CC(C)OP(=O)(OC(C)C)C(Cc1ccccc1C(F)(F)F)c1sc2ccccc2c1Cl (centres unmarked) [Cpd 173] | 140 nM | 103% | –
CCOP(=O)(OCC)C(Cc1cc(C(F)(F)F)ccc1F)c1sc2ccccc2c1Cl (centres unmarked) [Cpd 286] | 127 nM | 102% | –
CCOP(=O)(OCC)C(Cc1cccc(Cl)c1F)c1sc2ccccc2c1C (racemic) [Cpd 23] | 96 nM | – | 100%
CCOP(=O)(OCC)C(Cc1cccc(Cl)c1)c1sc2ccccc2c1Cl (centres unmarked) [Cpd 290] | 115 nM | 103% | –
CCOP(=O)(OCC)C(Cc1cccc(C(F)(F)F)c1)c1cc2ccccc2s1 (racemic) [Cpd 39] | 141 nM | – | 100%
CCOP(=O)(OCC)C(Cc1ccc(F)c(O)c1)c1sc2ccccc2c1Br (centres unmarked) [Cpd 225, [1-(3-Bromo-benzo[b]thiophen-2-yl)-2-(4-fluoro-3-hydroxy-phenyl)-ethyl]-phosphonic acid diethyl ester] | – | 103% | –
CC(C)OP(=O)(OC(C)C)C(Cc1cc(C(F)(F)F)ccc1F)c1sc2ccccc2c1Cl (centres unmarked) [Cpd 172] | 105 nM | 104% | –
CC(C)OP(=O)(OC(C)C)C(Cc1cc(C(F)(F)F)cc(C(F)(F)F)c1)c1sc2ccccc2c1Cl (centres unmarked) [Cpd 171] | 221 nM | 95% | –
CCOP(=O)(OCC)C(Cc1ccc(Cl)cc1)c1sc2ccccc2c1Cl (centres unmarked) [Cpd 293] | 156 nM | 103% | –
CC(C)CCOP(=O)(OCCC(C)C)C(Cc1ccc(F)c(F)c1)c1sc2ccccc2c1Br (centres unmarked) [Cpd 211] | 95 nM | 97% | –
CCOP(=O)(OCC)C(Cc1ccccc1C)c1sc2ccccc2c1C (racemic) [Cpd 26] | 108 nM | – | 100%
CCOP(=O)(OCC)C(Cc1ccc(F)c(Cl)c1)c1sc2ccccc2c1Cl (centres unmarked) [Cpd 297] | 40 nM | 103% | –
CCOP(=O)(OCC)C(Cc1ccc(OC)c(C(F)(F)F)c1)c1sc2ccccc2c1Cl (centres unmarked) [Cpd 292] | 216 nM | 99% | –
CCOP(=O)(OCC)C(Cc1cccc(C(F)(F)F)c1F)c1sc2ccccc2c1Cl (centres unmarked) [Cpd 281] | 131 nM | 102% | –
CCOP(=O)(OCC)C(Cc1cccc(C(F)(F)F)c1Cl)c1sc2ccccc2c1Br (centres unmarked) [Cpd 151] | 120 nM | 103% | –
CC(C)OP(=O)(OC(C)C)C(Cc1cccc(O)c1F)c1sc2ccccc2c1Br (centres unmarked) [Cpd 230] | 10 nM | 97% | –
CC(C)OP(=O)(OC(C)C)C(Cc1cc(O)c(Cl)cc1F)c1sc2ccccc2c1Br (centres unmarked) [Cpd 232] | 63 nM | 99% | –
CCOP(=O)(OCC)C(Cc1cccc(C(F)(F)F)c1F)c1sc2ccccc2c1C (racemic) [Cpd 37] | 127 nM | – | 100%
